Reference: paper PMC12120022, “Discovery and chemical optimisation of a potent, Bi-cyclic antimicrobial inhibitor of Escherichia coli PBP3” (Communications Biology, 2025)
Where a SMILES comes first, the peptide text is derived from it.

Molecular target: T1, EcPBP3 (Escherichia coli, UniProt P0AD68)
T1 construct: For assays, selections and SPR a construct with residues 60–588 which has the N-terminal domain, but not the transmembrane helix, was used; made in house
Experiment: Fluorescence polarisation competition assay with BOCILLIN-FL as tracer
Assay type: binding
Details: competition format; NB, non-binder (100 μM top concentration); read-out: IC50 (nM) by fluorescence polarisation with Bocillin FL as tracer, Geometric mean (Lower 95% CI of geo. Mean; Upper 95% CI of geo. Mean, n=number of values)
Experimental: Binding of output peptides to EcPBP3 was evaluated using a fluorescence polarisation (FP) assay.
[…] 10 µL of protein (9.4 nM) was mixed with either 5 µL of peptide or 5 µL of buffer and then the assay was initiated by the addition of 10 µL of tracer (1 nM) (final volume 25 µL), in a black 384 low bind, low volume plate (Corning). The buffer was 10 mM HEPES (Sigma), 2% (v/v) glycerol (Sigma), 300 mM NaCl (Sigma), adjusted to pH 8. The plate was incubated for 1 h at 25 °C and then read in a PHERAstar FS (BMG) using with an “FP 485 520 520” optic module (excitation 485 nm, emission 520 nm). The gain was determined immediately prior to the read on a tracer-only well.
Dotmatics (Dotmatics) workflows performing the above calculations were used to process the data. Values quoted are the geometric means of at least 2 repeats.

T1 sequence (P0AD68 60-588): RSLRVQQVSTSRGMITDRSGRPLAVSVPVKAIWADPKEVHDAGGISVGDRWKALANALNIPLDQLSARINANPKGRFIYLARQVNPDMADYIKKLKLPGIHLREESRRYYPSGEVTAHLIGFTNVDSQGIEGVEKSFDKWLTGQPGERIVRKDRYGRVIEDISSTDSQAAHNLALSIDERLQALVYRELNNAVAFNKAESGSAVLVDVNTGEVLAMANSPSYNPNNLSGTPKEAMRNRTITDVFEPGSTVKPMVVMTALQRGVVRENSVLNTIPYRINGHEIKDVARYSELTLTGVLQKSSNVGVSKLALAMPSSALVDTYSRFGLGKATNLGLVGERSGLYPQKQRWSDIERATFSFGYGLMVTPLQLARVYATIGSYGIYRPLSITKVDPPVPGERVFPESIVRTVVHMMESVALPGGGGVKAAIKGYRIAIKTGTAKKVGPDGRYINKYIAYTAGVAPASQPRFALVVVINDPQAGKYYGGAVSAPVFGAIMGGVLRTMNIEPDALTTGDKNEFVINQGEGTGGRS

SMILES	IC50 [nM]
CSCC[C@@H]1NC(=O)[C@H](CC(N)=O)NC(=O)[C@H]([C@@H](C)O)NC(=O)[C@H](Cc2ccccc2)NC(=O)[C@H](CCC(=O)O)NC(=O)[C@H](CC(C)C)NC(=O)[C@@H]2CSCCC(=O)N3CN(CN(C3)C(=O)CCSC[C@@H](C(=O)N[C@@H](C)C(N)=O)NC1=O)C(=O)CCSC[C@H](NC(=O)[C@H](C)N)C(=O)N[C@@H](Cc1ccc(O)cc1)C(=O)N[C@@H](CCCCN)C(=O)N[C@@H](Cc1ccc(O)cc1)C(=O)N1CCC[C@H]1C(=O)NCC(=O)N[C@@H](CC(C)C)C(=O)N2 [Peptide 9] (HELM PEPTIDE1{A.C.Y.K.Y.P.G.L.C.L.E.F.T.N.M.C.A.[am]}|CHEM1{[O=C(CC[*:1])N1CN(C(=O)CC[*:2])CN(C(=O)CC[*:3])C1]}$PEPTIDE1,CHEM1,2:R3-1:R1|PEPTIDE1,CHEM1,9:R3-1:R2|PEPTIDE1,CHEM1,16:R3-1:R3$$$V2.0)	> 100000
CC[C@H](C)[C@@H]1NC(=O)[C@H]([C@@H](C)O)NC(=O)[C@H](CC(=O)O)NC(=O)[C@H](C)NC(=O)[C@@H](NC(=O)[C@H](C)N)CSCCC(=O)N2CN3CN(C2)C(=O)CCSC[C@@H](C(=O)N[C@@H](C)C(N)=O)NC(=O)[C@@H]2CCCN2C(=O)[C@H](Cc2ccc(O)cc2)NC(=O)[C@@H]2CCCN2C(=O)[C@H](C(C)C)NC(=O)[C@H](CSCCC3=O)NC(=O)[C@H]([C@@H](C)O)NC(=O)[C@H](CC(C)C)NC(=O)[C@H](CO)NC(=O)[C@H](Cc2ccc(O)cc2)NC1=O [Peptide 6] (HELM PEPTIDE1{A.C.A.D.T.I.Y.S.L.T.C.V.P.Y.P.C.A.[am]}|CHEM1{[O=C(CC[*:1])N1CN(C(=O)CC[*:2])CN(C(=O)CC[*:3])C1]}$PEPTIDE1,CHEM1,2:R3-1:R1|PEPTIDE1,CHEM1,11:R3-1:R2|PEPTIDE1,CHEM1,16:R3-1:R3$$$V2.0)	> 100000
CC(C)C[C@@H]1NC(=O)CNC(=O)[C@@H]2CCCN2C(=O)[C@H](Cc2ccc(O)cc2)NC(=O)[C@H](C)NC(=O)[C@H](Cc2ccc(O)cc2)NC(=O)[C@@H]2CCCN2C(=O)[C@@H](NC(=O)[C@H](C)N)CSCCC(=O)N2CN3CN(C2)C(=O)CCSC[C@H](NC1=O)C(=O)N[C@@H](CC(C)C)C(=O)N[C@@H](CCC(=O)O)C(=O)N[C@@H](Cc1ccccc1)C(=O)N[C@@H](CCCCN)C(=O)N[C@@H](CO)C(=O)N[C@H](C(=O)N[C@@H](C)C(N)=O)CSCCC3=O [Peptide 11] (HELM PEPTIDE1{A.C.P.Y.A.Y.P.G.L.C.L.E.F.K.S.C.A.[am]}|CHEM1{[O=C(CC[*:1])N1CN(C(=O)CC[*:2])CN(C(=O)CC[*:3])C1]}$PEPTIDE1,CHEM1,2:R3-1:R1|PEPTIDE1,CHEM1,10:R3-1:R2|PEPTIDE1,CHEM1,16:R3-1:R3$$$V2.0)	> 100000
CSCC[C@@H]1NC(=O)[C@H](CC(C)C)NC(=O)[C@@H]2CSCCC(=O)N3CN(CN(C3)C(=O)CCSC[C@@H](C(=O)N[C@@H](C)C(N)=O)NC(=O)[C@H](CC(C)C)NC(=O)[C@H](CCC(=O)O)NC(=O)[C@@H]3CCCN3C(=O)[C@H](Cc3ccccc3)NC1=O)C(=O)CCSC[C@H](NC(=O)[C@H](C)N)C(=O)N[C@@H](CCCNC(=N)N)C(=O)NCC(=O)N[C@@H](CCC(=O)O)C(=O)N[C@@H](CO)C(=O)N[C@@H](CO)C(=O)N[C@@H](Cc1ccccc1)C(=O)N2 [Peptide 4] (HELM PEPTIDE1{A.C.R.G.E.S.S.F.C.L.M.F.P.E.L.C.A.[am]}|CHEM1{[O=C(CC[*:1])N1CN(C(=O)CC[*:2])CN(C(=O)CC[*:3])C1]}$PEPTIDE1,CHEM1,2:R3-1:R1|PEPTIDE1,CHEM1,9:R3-1:R2|PEPTIDE1,CHEM1,16:R3-1:R3$$$V2.0)	> 100000
CC(C)C[C@@H]1NC(=O)[C@H](Cc2c[nH]c3ccccc23)NC(=O)[C@H](CCC(=O)O)NC(=O)[C@@H]2CCCN2C(=O)[C@H]([C@@H](C)O)NC(=O)[C@H](CCCCN)NC(=O)[C@H](C)NC(=O)[C@@H](NC(=O)[C@H](C)N)CSCCC(=O)N2CN3CN(C2)C(=O)CCSC[C@@H](C(=O)N[C@@H](C)C(N)=O)NC(=O)[C@H](Cc2ccc(O)cc2)NC(=O)[C@H](C)NC(=O)[C@H](CC(N)=O)NC(=O)[C@H](Cc2ccccc2)NC(=O)CNC(=O)[C@H](CSCCC3=O)NC1=O [Peptide 3] (HELM PEPTIDE1{A.C.A.K.T.P.E.W.L.C.G.F.N.A.Y.C.A.[am]}|CHEM1{[O=C(CC[*:1])N1CN(C(=O)CC[*:2])CN(C(=O)CC[*:3])C1]}$PEPTIDE1,CHEM1,2:R3-1:R1|PEPTIDE1,CHEM1,10:R3-1:R2|PEPTIDE1,CHEM1,16:R3-1:R3$$$V2.0)	> 100000
CC(C)C[C@@H]1NC(=O)[C@H](CCC(=O)O)NC(=O)[C@@H]2CCCN2C(=O)[C@@H]2CCCN2C(=O)[C@H](CC(C)C)NC(=O)CNC(=O)[C@@H]2CCCN2C(=O)[C@H](Cc2ccc(O)cc2)NC(=O)[C@@H](NC(=O)[C@H](C)N)CSCCC(=O)N2CN3CN(C2)C(=O)CCSC[C@H](NC1=O)C(=O)N[C@@H](CO)C(=O)N1CCC[C@H]1C(=O)N[C@@H](CO)C(=O)N[C@@H](Cc1ccccc1)C(=O)N[C@H](C(=O)N[C@@H](C)C(N)=O)CSCCC3=O [Peptide 10] (HELM PEPTIDE1{A.C.Y.P.G.L.P.P.E.L.C.S.P.S.F.C.A.[am]}|CHEM1{[O=C(CC[*:1])N1CN(C(=O)CC[*:2])CN(C(=O)CC[*:3])C1]}$PEPTIDE1,CHEM1,2:R3-1:R1|PEPTIDE1,CHEM1,11:R3-1:R2|PEPTIDE1,CHEM1,16:R3-1:R3$$$V2.0)	> 100000
CC(C)C[C@@H]1NC(=O)[C@H](C(C)C)NC(=O)[C@H](C(C)C)NC(=O)[C@@H]2CCCN2C(=O)[C@H](CCCNC(=N)N)NC(=O)[C@H](C)NC(=O)[C@@H](NC(=O)[C@H](C)N)CSCCC(=O)N2CN3CN(C2)C(=O)CCSC[C@H](NC1=O)C(=O)N[C@@H](Cc1ccc(O)cc1)C(=O)N[C@@H](Cc1c[nH]c2ccccc12)C(=O)N1CCC[C@H]1C(=O)N[C@@H](CCC(=O)O)C(=O)N[C@@H](CC(=O)O)C(=O)N[C@H](C(=O)N[C@@H](C)C(N)=O)CSCCC3=O [Peptide 15] (HELM PEPTIDE1{A.C.A.R.P.V.V.L.C.Y.W.P.E.D.C.A.[am]}|CHEM1{[O=C(CC[*:1])N1CN(C(=O)CC[*:2])CN(C(=O)CC[*:3])C1]}$PEPTIDE1,CHEM1,2:R3-1:R1|PEPTIDE1,CHEM1,9:R3-1:R2|PEPTIDE1,CHEM1,15:R3-1:R3$$$V2.0)	> 100000
CC(C)C[C@@H]1NC(=O)[C@@H]2CSCCC(=O)N3CN(CN(C3)C(=O)CCSC[C@@H](C(=O)N[C@@H](C)C(N)=O)NC(=O)[C@H](Cc3c[nH]c4ccccc34)NC(=O)[C@H](CC(=O)O)NC(=O)[C@H](CC(N)=O)NC(=O)[C@H](CCCCN)NC(=O)[C@H](C)NC1=O)C(=O)CCSC[C@H](NC(=O)[C@H](C)N)C(=O)N[C@@H](C)C(=O)N[C@@H](C)C(=O)N[C@@H](CC(=O)O)C(=O)N[C@@H](CCCNC(=N)N)C(=O)N[C@@H](CC(C)C)C(=O)N[C@@H](Cc1c[nH]c3ccccc13)C(=O)N2 [Peptide 1] (HELM PEPTIDE1{A.C.A.A.D.R.L.W.C.L.A.K.N.D.W.C.A.[am]}|CHEM1{[O=C(CC[*:1])N1CN(C(=O)CC[*:2])CN(C(=O)CC[*:3])C1]}$PEPTIDE1,CHEM1,2:R3-1:R1|PEPTIDE1,CHEM1,9:R3-1:R2|PEPTIDE1,CHEM1,16:R3-1:R3$$$V2.0)	> 100000
CC[C@H](C)[C@@H]1NC(=O)[C@@H](NC(=O)[C@H](C)N)CSCCC(=O)N2CN3CN(C2)C(=O)CCSC[C@H](NC(=O)[C@H](CCCNC(=N)N)NC(=O)[C@H](CCC(=O)O)NC(=O)[C@H](CCCNC(=N)N)NC1=O)C(=O)N[C@@H](Cc1c[nH]c2ccccc12)C(=O)N[C@@H](CC(=O)O)C(=O)N[C@@H](CC(C)C)C(=O)N[C@@H](CCCCN)C(=O)N[C@@H](CCC(=O)O)C(=O)N[C@@H](CC(N)=O)C(=O)N[C@@H](CC(=O)O)C(=O)N[C@@H](Cc1c[nH]c2ccccc12)C(=O)N[C@H](C(=O)N[C@@H](C)C(N)=O)CSCCC3=O [Peptide 14] (HELM PEPTIDE1{A.C.I.R.E.R.C.W.D.L.K.E.N.D.W.C.A.[am]}|CHEM1{[O=C(CC[*:1])N1CN(C(=O)CC[*:2])CN(C(=O)CC[*:3])C1]}$PEPTIDE1,CHEM1,2:R3-1:R1|PEPTIDE1,CHEM1,7:R3-1:R2|PEPTIDE1,CHEM1,16:R3-1:R3$$$V2.0)	> 100000
